Where “and” joins values, the source holds several entries; their conditions need not be identical. Equal entries are not always repeated.
Tests used:
[1] = tested on: mGlu1 construct not given; experiment: Fura-2 Ca2+ imaging in HEK293 cells, source data Suppl Fig1, middle group (c9-c17); construct not given; format: cell-based, rat; design: unit not given here; conditions: single-cell values, cells #15-#20; middle group of third block; listed as Glu
Text: (§1) Supplement 41467_2022_30828_MOESM6_ESM.zip/Ojima et al_source data_Suppl Fig.xlsx, sheet "Suppl Fig1" | column: Glu; NiCl2; CuCl2; ZnCl2; CdCl2; Na2PdCl2; Pd(bpy)

[2] = tested on: mGlu1 construct not given; experiment: Fura-2 Ca2+ imaging in HEK293 cells, source data Suppl Fig1, right group (c18-c26); construct not given; format: cell-based, rat; design: unit not given here; conditions: single-cell values, cells #15-#20; right group of third block; listed as Glu
Text: as §1

[3] = tested on: HEK293 cells, control vector; experiment: Inositol-1-phosphate (IP1) accumulation assay, HEK293 cells transfected with control vector; format: cell-based; conditions: 100 µM Glu; Vec; listed as Glu
[4] = tested on: HEK293 cells, vector control; experiment: Fura-2 Ca2+ imaging in HEK293 cells transfected with control vector (Vec); format: cell-based; conditions: single-cell values #1-#20, listed as Glu
[5] = tested on: mGlu1 construct not given; experiment: Fura-2 Ca2+ imaging in HEK293 cells, source data Suppl Fig1, left group (c0-c8); construct not given; format: cell-based, rat; design: unit not given here; conditions: single-cell values, cells #15-#20; left group of third block; listed as Glu
Text: as §1

## N[C@@H](CCC(=O)O)C(=O)O [glutamate, reference compound]
[1]
  Ca2+ response of individual cells (source data, sheet Suppl Fig1): 0.1431 and 0.7212 and 0.03709 and 0.1609 and 0.01695 and 0.7758
[2]
  Ca2+ response of individual cells (source data, sheet Suppl Fig1): 0.5202 and 0.5869 and 0.3843 and 0.3042 and 0.505 and 0.02158
[3]
  IP1 accumulation, single experiments: 1.025 and 1.123 and 0.98
[4]
  Ca2+ response of individual cells (source data Suppl Fig1), Vec: 0.01056 and 0.06409 and 0.01964 and 0.006185 and 0.01272 and 0.02269 and 0.02795 and 0.001992 and 0.03471 and 0.04057 and 0.0119 and 0.01116 and 0.01651 and 0.008954 and 0.06266 and 0.02138 and 0.004577 and 0.01188 and 0.01429 and 0.0107
[5]
  Ca2+ response of individual cells (source data, sheet Suppl Fig1): 0.1813 and 0.3548 and 0.1848 and 0.1996 and 0.1287 and 0.1577
